The source of these data is patent US20230416225A1, “DIAMINOPYRIMIDINE CARBOXAMIDE INHIBITORS OF HPK1” (MERCK SHARP & DOHME LLC, priority 2020, published 2023).

In this experiment the target is T1, Human HPK1, catalytic domain (Homo sapiens, UniProt Q92918).
T1 construct: purchased Carna
T1 sequence (Q92918 1-346): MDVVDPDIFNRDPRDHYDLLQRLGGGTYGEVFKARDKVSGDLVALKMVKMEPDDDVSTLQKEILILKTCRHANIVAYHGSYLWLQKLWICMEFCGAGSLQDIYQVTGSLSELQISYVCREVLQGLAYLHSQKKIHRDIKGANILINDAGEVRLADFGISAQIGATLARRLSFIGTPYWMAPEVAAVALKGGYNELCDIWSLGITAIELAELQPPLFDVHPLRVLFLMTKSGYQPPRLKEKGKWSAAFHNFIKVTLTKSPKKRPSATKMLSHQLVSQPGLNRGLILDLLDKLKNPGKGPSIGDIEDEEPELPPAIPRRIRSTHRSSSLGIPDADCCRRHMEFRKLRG
Description: HPK1-SLP76 TR-FRET assay. Type of experiment: biochemical. The conditions noted are these: 75 pM HPK1, 10 uM ATP, 10 nM SLP76, 30 min compound pre-incubation. On the technique in general: In TR-FRET formats the signal depends on donor and acceptor labels being close together.
As to `COc1cc2c(cc1Nc1ncc(C(N)=O)c(Nc3ccc(Br)cc3)n1)CN(C)CC2` [Example 7-72, 4-[(4-bromophenyl)amino]-2-[(6-methoxy-2-methyl-1,2,3,4-tetrahydroisoquinolin-7-yl)amino]pyrimidine-5-carboxamide], the IC50 (in general, the concentration that gives 50% inhibition) came to 1.52 nM.

Molecule `COc1cc2c(cc1Nc1ncc(C(N)=O)c(Nc3cccc(CCO)c3)n1)CNCC2` [Example 7-75, 4-{[3-(2-hydroxyethyl)phenyl]amino}-2-[(6-methoxy-1,2,3,4-tetrahydroisoquinolin-7-yl)amino]pyrimidine-5-carboxamide] came in with an IC50 of 0.99 nM.

Consider `COc1cc2c(cc1Nc1ncc(C(N)=O)c(Nc3ccccc3-n3ccnn3)n1)CN(C)CC2` [Example 7-77, 2-[(6-methoxy-2-methyl-1,2,3,4-tetrahydroisoquinolin-7-yl)amino]-4-{[2-(1H-1,2,3-triazol-1-yl)phenyl]amino}pyrimidine-5-carboxamide], for which the IC50 came out at 0.23 nM.

Turning to `CCn1nc(C)cc1Nc1nc(Nc2cc3c(cc2OC)CCN(C)C3)ncc1C(N)=O` [Example 7-79, 4-((1-ethyl-3-methyl-1H-pyrazol-5-yl)amino)-2-((6-methoxy-2-methyl-1,2,3,4-tetrahydroisoquinolin-7-yl)amino)pyrimidine-5-carboxamide], the IC50 turned out to be 105 nM.

For the molecule `COc1cc2c(cc1Nc1ncc(C(N)=O)c(Nc3c(C)nn(C)c3C)n1)CN(C)CC2` [Example 7-80, 2-((6-methoxy-2-methyl-1,2,3,4-tetrahydroisoquinolin-7-yl)amino)-4-((1,3,5-trimethyl-1H-pyrazol-4-yl)amino)pyrimidine-5-carboxamide], the IC50 came out at 0.91 nM.

The molecule `COc1cc2c(cc1Nc1ncc(C(N)=O)c(Nc3cn(C)nc3C3CC3)n1)CN(C)CC2` [Example 7-81, 4-((3-cyclopropyl-1-methyl-1H-pyrazol-4-yl)amino)-2-((6-methoxy-2-methyl-1,2,3,4-tetrahydroisoquinolin-7-yl)amino)pyrimidine-5-carboxamide] showed an IC50 of 3.08 nM.

`COc1cc2c(cc1Nc1ncc(C(N)=O)c(Nc3cc(C4CC4)nn3C)n1)CN(C)CC2` [Example 7-82, 4-((3-cyclopropyl-1-methyl-1H-pyrazol-5-yl)amino)-2-((6-methoxy-2-methyl-1,2,3,4-tetrahydroisoquinolin-7-yl)amino)pyrimidine-5-carboxamide]: the midpoint of inhibition, the IC50, lay at 651 nM.

As for `COc1cc2c(cc1Nc1ncc(C(N)=O)c(Nc3c(C)noc3C)n1)CN(C)CC2` [Example 7-83, 4-((3,5-dimethylisoxazol-4-yl)amino)-2-((6-methoxy-2-methyl-1,2,3,4-tetrahydroisoquinolin-7-yl)amino)pyrimidine-5-carboxamide], 4.84 nM corresponded to half-maximal inhibition (IC50).

In turn, `COc1cc2c(cc1Nc1ncc(C(N)=O)c(Nc3c4c(nn3C)CCC4)n1)CN(C)CC2` [Example 7-84, 2-((6-methoxy-2-methyl-1,2,3,4-tetrahydroisoquinolin-7-yl)amino)-4-((2-methyl-2,4,5,6-tetrahydrocyclopenta[c]pyrazol-3-yl)amino)pyrimidine-5-carboxamide] showed an IC50 of 5.66 nM.

Molecule `COc1cc2c(cc1Nc1ncc(C(N)=O)c(Nc3ccccc3-c3cc(C)no3)n1)CN(C)CC2` [Example 7-85, 2-((6-methoxy-2-methyl-1,2,3,4-tetrahydroisoquinolin-7-yl)amino)-4-((2-(3-methylisoxazol-5-yl)phenyl)amino)pyrimidine-5-carboxamide] displayed an IC50 of 9.29 nM.

In turn, `COc1cc2c(cc1Nc1ncc(C(N)=O)c(Nc3cn(C)nc3C(F)(F)F)n1)CN(C)CC2` [Example 7-86, 2-((6-methoxy-2-methyl-1,2,3,4-tetrahydroisoquinolin-7-yl)amino)-4-((1-methyl-3-(trifluoromethyl)-1H-pyrazol-4-yl)amino)pyrimidine-5-carboxamide] displayed an IC50 of 11.8 nM.

`CCn1cc(Cl)c(Nc2nc(Nc3cc4c(cc3OC)CCN(C)C4)ncc2C(N)=O)n1` [Example 7-87, 4-((4-chloro-1-ethyl-1H-pyrazol-3-yl)amino)-2-((6-methoxy-2-methyl-1,2,3,4-tetrahydroisoquinolin-7-yl)amino)pyrimidine-5-carboxamide] had an IC50 of 4.78 nM.

Regarding `COc1cc2c(cc1Nc1ncc(C(N)=O)c(Nc3ccnn3C)n1)CN(C)CC2` [Example 7-88, 2-((6-methoxy-2-methyl-1,2,3,4-tetrahydroisoquinolin-7-yl)amino)-4-((1-methyl-1H-pyrazol-5-yl)amino)pyrimidine-5-carboxamide], half-maximal inhibition (IC50) required 9.16 nM.

In turn, `COc1cc2c(cc1Nc1ncc(C(N)=O)c(Nc3cc(C)nn3CCO)n1)CN(C)CC2` [Example 7-90, 4-((1-(2-hydroxyethyl)-3-methyl-1H-pyrazol-5-yl)amino)-2-((6-methoxy-2-methyl-1,2,3,4-tetrahydroisoquinolin-7-yl)amino)pyrimidine-5-carboxamide] gave an IC50 of 1.44 nM.

For the molecule `COc1cc2c(cc1Nc1ncc(C(N)=O)c(Nc3cc(C)nn3Cc3ccccc3)n1)CN(C)CC2` [Example 7-91, 4-((1-benzyl-3-methyl-1H-pyrazol-5-yl)amino)-2-((6-methoxy-2-methyl-1,2,3,4-tetrahydroisoquinolin-7-yl)amino)pyrimidine-5-carboxamide], half-maximal inhibition (IC50) was put at 38.6 nM.

As for `COc1cc2c(cc1Nc1ncc(C(N)=O)c(Nc3cc(C)nn3-c3ccccc3)n1)CN(C)CC2` [Example 7-92, 2-((6-methoxy-2-methyl-1,2,3,4-tetrahydroisoquinolin-7-yl)amino)-4-((3-methyl-1-phenyl-1H-pyrazol-5-yl)amino)pyrimidine-5-carboxamide], half-maximal inhibition (IC50) was put at 10.9 nM.

In the case of `CCn1ncc(C)c1Nc1nc(Nc2cc3c(cc2OC)CCN(C)C3)ncc1C(N)=O` [Example 7-93, 4-((1-ethyl-4-methyl-1H-pyrazol-5-yl)amino)-2-((6-methoxy-2-methyl-1,2,3,4-tetrahydroisoquinolin-7-yl)amino)pyrimidine-5-carboxamide], inhibition was half-maximal at 18.5 nM (IC50).

Consider `COC(=O)c1ccccc1Nc1nc(Nc2cc3c(cc2OC)CCN(C)C3)ncc1C(N)=O` [Example 7-94, methyl 2-({5-carbamoyl-2-[(6-methoxy-2-methyl-1,2,3,4-tetrahydroisoquinolin-7-yl)amino]pyrimidin-4-yl}amino)benzoate], for which the IC50 amounted to 0.88 nM.

With `COc1ccc(C(N)=O)cc1Nc1ncc(C(N)=O)c(Nc2ccccc2Br)n1` [Example 7-95, 4-[(2-bromophenyl)amino]-2-[(5-carbamoyl-2-methoxyphenyl)amino]pyrimidine-5-carboxamide], the IC50 was 548 nM.

With `NC(=O)c1cnc(Nc2cccc3c2OCC3)nc1Nc1ccccc1Br` [Example 7-96, 4-[(2-bromophenyl)amino]-2-[(2,3-dihydro-1-benzofuran-7-yl)amino]pyrimidine-5-carboxamide], the IC50 was found to be 713 nM.

`COc1cc2c(cc1Nc1ncc(C(N)=O)c(Nc3ccccc3C(O)(C(F)(F)F)C(F)(F)F)n1)CN(C)CC2` [Example 7-97, 4-{[2-(1,1,1,3,3,3-hexafluoro-2-hydroxypropan-2-yl)phenyl]amino}-2-[(6-methoxy-2-methyl-1,2,3,4-tetrahydroisoquinolin-7-yl)amino]pyrimidine-5-carboxamide] displayed an IC50 of 0.23 nM.
